The subject of assay [1] is Candida parapsilosis and spores of Aspergillus niger. Briefly: summary of tests with Candida parapsilosis and spores of Aspergillus niger. In kind it is cell-based. The arrangement: key to synergistic effect in mixtures: + = low but significant; ++ = good; +++ = very good. The settings on record: for concentration without sufficient antimicrobial activity: conventional plant protection agent alone; for synergistic effect in mixtures: plant protection agent in mixtures (M1-M7, Table 2). The procedure:
(§1) A specific in vitro test system was designed with certified tester strains from Candida parapsilosis (DSM 70125) and spores from Aspergillus niger (DSM 1957) to define antimicrobial activities and synergistic effects. In all experiments freshly grown cultures of the listed microorganisms were adjusted to a cell number of about 10^5 in a 200 μl volume of the test solutions. Test solutions are in general: a) sterile water (H2O) as a negative control, b) conventional plant protection agent alone c) specific mixtures of essential oils, detergents, metal ions and organic acids, d) a plant protection composition according to the invention.
(§2) After a residence time of 15 min. (Candida parapsilosis) or 60 min. (Aspergillus niger) at room temperature the 200 μl samples containing the microorganisms and the test solutions were diluted and were plated in dilutions of 0, 10^−1 and 10^−2 with aliquots of 10 μl each onto growth media. After an incubation period of 2-5 days at 30° C. the grown colonies were determined and documented by digital photography.

In assay [2] the test system is Candida parapsilosis (DSM 70125). Nature of the assay: in vitro test of antimicrobial activity and synergistic effects on suspension cultures of Candida parapsilosis. In kind it is cell-based. Particulars: FIG. 4; for antimicrobial activities against Candida parapsilosis: agent alone at three concentrations (0.05%, 0.025%, 0.01%); for synergistic effect against Candida parapsilosis: in combination with mixture M1, all three concentrations (0.05%, 0.025%, 0.01%). The procedure:
as §1, §2

From patent US9980482B2, “Synergistic compositions with plant protection agents” (multiBIND biotec GmbH, priority 2013, dated 2018) come the findings set out here.

Take `[Cl-].[Cu+2].[Cu+2].[OH-].[OH-].[OH-]` [F7, Copperoxychlorid]: in assay [1], the “concentration without sufficient antimicrobial activity” value turned out to be 0.05% and the “synergistic effect in mixtures” value is reported as “++”.
In the same order, the values of `CO/C=C(/C(=O)OC)c1ccccc1Oc1cc(Oc2ccccc2C#N)ncn1` [F6, Azoxystrobin] are 0.07% and “+”.
As for `N#Cc1c(Cl)c(Cl)c(Cl)c(C#N)c1Cl` [F5, Chlorothalonil], in assay [2], the “antimicrobial activities against Candida parapsilosis” value (from here on “antimicrobial activities”) is listed as “do not show sufficient antimicrobial activities” and the “synergistic effect against Candida parapsilosis” value is reported as “show synergistic effects”. Further, in assay [1], the “concentration without sufficient antimicrobial activity” value is 0.05% and the “synergistic effect in mixtures” value is listed as “++”.
`OC(Cc1ccccc1Cl)(Cn1nc[nH]c1=S)C1(Cl)CC1` (centres unmarked) [F2, Prothioconazole]: in assay [1], the “concentration without sufficient antimicrobial activity” value was 0.05% and the “synergistic effect in mixtures” value is given as “+”.
With `CCNC(=O)NC(=O)/C(C#N)=N/OC` [F3, Curzate], in assay [2], the “antimicrobial activities” value was “do not show sufficient antimicrobial activities” and the “synergistic effect against Candida parapsilosis” value is given as “show synergistic effects”. For the same compound, in assay [1], the “concentration without sufficient antimicrobial activity” value is reported as 0.01% and the “synergistic effect in mixtures” value is “+++”.
Turning to Mancozeb [F4], in assay [2], the “antimicrobial activities” value is recorded as “do not show sufficient antimicrobial activities” and the “synergistic effect against Candida parapsilosis” value is listed as “show synergistic effects”. In addition, in assay [1], the “concentration without sufficient antimicrobial activity” value was determined as 0.05% and the “synergistic effect in mixtures” value was “+++”.
Take `CCCOC(=O)NCCCN(C)C` [F1, Propamocarb]: in assay [1], the “concentration without sufficient antimicrobial activity” value is listed as 0.05% and the “synergistic effect in mixtures” value is “+”.
